Data reported in US20190255073A1, “ESTERS OF 3-POLYAMINE DERIVATIVES OF BILE ACIDS FOR THE TREATMENT OF INFECTIONS” (VIRBAC, priority 2016, published 2019).
≈ marks a conversion by molar mass, not a printed value.

How the values were obtained:
[1] = system: E. faecalis ATCC29212; assay: MIC determination by microplate dilution, E. faecalis human strain; format: cell-based, Enterococcus faecalis; conditions: Enterococcus faecalis, ATCC29212, Gram-positive, Mueller-Hinton medium, 24 h, 37° C.
Description: (§1) 1) Preparation of the Preculture
(§2) A negative control (2 mL of sterile culture medium)
(§3) A positive control (1940 μL of culture medium+40 μL of DMSO+20 μL of bacterial suspension) from a thawed biological strain (the biological strains are stored at −80° C. in glycerol).
(§4) The tubes were incubated at 37° C. for 24 hours at 100 rpm.
(§5) The microorganisms were handled under a type L2 laboratory fume cupboard and, before any handling, a UV cycle was programmed and only sterile material was used. […] The chemical compounds to be tested were prepared in a DMSO/methanol mixture (50/50) at a concentration of 5 mg/mL.
(§6) 2) Preparation of the Microplate for the Determination of the Minimum Inhibitory Concentration (MIC)
(§7) After 24 hours of incubation, a measurement of the optical density was taken using a spectrophotometer at 600 nm, collecting 100 μL of the bacterial suspension diluted in 900 μL of the sterile culture medium. This test required the use of a 96-well plate and the required volume of the microbial suspension to be seeded was calculated for an OD corresponding to a value equal to 0.01 in each well. In this plate, the first line corresponded to the negative control (195 μL of sterile culture medium in each well), the second line to the positive control (seeded culture medium supplemented with 2% of DMSO), the third line was loaded twice with bacterial suspension, 8 μL of test product were placed in each well. Thereafter, a 0.5 cascade dilution was performed from this line.
(§8) The first column served as inhibition control. A sterile filter was then placed on the microplate, allowing the passage of gases but not of contaminants. The microplate was incubated at 37° C. under a humid atmosphere for 24 hours.
(§9) NB: The medium used is Mueller-Hinton (MH) medium for bacteria. All the tests were performed in duplicate.
(§10) 4) Reading of the Results
(§11) After incubation, the filter was replaced with a transparent film, and an OD reading was then taken in an iEMS plate spectrophotometer at 620 nm. Calculation of the minimum inhibitory concentration (MIC) was performed.

[2] = system: P. aeruginosa ATCC27853; assay: MIC determination by microplate dilution, P. aeruginosa human strain; format: cell-based, Pseudomonas aeruginosa; conditions: Pseudomonas aeruginosa, ATCC27853, Gram-negative, Mueller-Hinton medium, 24 h, 37° C.
Description: as §1, §2, §3, §4, §5, §6, §7, §8, §9, §10, §11

[3] = system: S. aureus ATCC25923; assay: MIC determination by microplate dilution, S. aureus human strain; format: cell-based, Staphylococcus aureus; conditions: Staphylococcus aureus, ATCC25923, Gram-positive, Mueller-Hinton medium, 24 h, 37° C.
Description: as §1, §2, §3, §4, §5, §6, §7, §8, §9, §10, §11

[4] = system: CHO-K1 cells; assay: WST1 cytotoxicity test on CHO-K1 cells; format: cell-based, Chinese hamster; conditions: Cricetulus griseus, CHO-K1, 24 h, read-out: IC50 (μg/mL) CHO
Description: Test WST1 was used to measure the cytotoxic activity of the products. This is a colorimetric test which makes it possible to measure the viability and the degree of cell proliferation. It is based on cleavage of the colorless tetrazolium salts WST-1 (4-[3-(4-iodophenyl)-2-(4-nitrophenyl)-2H-5-tetrazolio]-1,3-benzene disulfonate) with mitochondrial dehydrogenases to the yellow-colored formazan derivative, which may be quantified by spectrophotometry at 420-480 nm.
The WST1 test was performed on Chinese hamster ovary cells. The CHO-K1 cells (ATCC, USA) are kept in culture on McCoy's 5A medium supplemented with 10% fetal calf serum, 2 mM of L-glutamine and a mixture of penicillin-streptomycin (100 U/ml: 10 μg/mL). The culture is incubated at 37° C. under an atmosphere enriched in CO2 (5%), and subcultured every two days.
The cells are transferred into 96-well plates (25 000 cells/mL) in whole McCoy's 5A medium, and maintained for 24 hours at 37° C. under a humid atmosphere enriched in CO2 (5%). Increasing concentrations of test products are added to the wells in double tests and 8 growth controls containing the cells in the medium alone are included in each series of tests. After 24 hours at 37° C. (5% CO2), the culture medium is removed, the cells are rinsed in phosphate buffer (PBS) and 50 μL of PBS containing 10% of reagent WST1 are added to each well. After 20 minutes of incubation at 37° C., the results are read by spectrophotometry at 450 nm.
The results are expressed in dose-response relationships, modeled by nonlinear regression analysis using the TableCurve software. The 50% inhibitory concentration (IC50) represents the concentration of product that is capable of reducing the cell viability by 50%.

[5] = system: P. aeruginosa (1051575); assay: Potentiation of the doxycycline activity at 2 μg/mL; format: cell-based, Pseudomonas aeruginosa; conditions: in combination with doxycycline 2 μg/mL; 24 h, 37°
[6] = system: S. intermedius (1051997); assay: MIC determination by microplate dilution, S. intermedius animal strain; format: cell-based, Staphylococcus intermedius; conditions: Staphylococcus intermedius, Gram-positive, Mueller-Hinton medium, 24 h, 37° C.
Description: as §1, §2, §3, §4, §5, §6, §7, §8, §9, §10, §11

[7] = system: P. aeruginosa (1051575); assay: MIC determination by microplate dilution, P. aeruginosa animal strain; format: cell-based, Pseudomonas aeruginosa; conditions: Pseudomonas aeruginosa, Gram-negative, Mueller-Hinton medium, 24 h, 37° C.
Description: as §1, §2, §3, §4, §5, §6, §7, §8, §9, §10, §11

[8] = system: E. coli ATCC28922; assay: MIC determination by microplate dilution, E. coli human strain; format: cell-based, Escherichia coli; conditions: Escherichia coli, ATCC28922, Gram-negative, Mueller-Hinton medium, 24 h, 37° C.
Description: as §1, §2, §3, §4, §5, §6, §7, §8, §9, §10, §11

[9] = system: S. aureus (340); assay: MIC determination by microplate dilution, S. aureus animal strain; format: cell-based, Staphylococcus aureus; conditions: Staphylococcus aureus, Gram-positive, Mueller-Hinton medium, 24 h, 37° C.
Description: as §1, §2, §3, §4, §5, §6, §7, §8, §9, §10, §11

[10] = system: E. coli (1956); assay: MIC determination by microplate dilution, E. coli animal strain; format: cell-based, Escherichia coli; conditions: Escherichia coli, Gram-negative, Mueller-Hinton medium, 24 h, 37° C.
Description: as §1, §2, §3, §4, §5, §6, §7, §8, §9, §10, §11

| SMILES | MIC [1] | MIC [2] | MIC [3] | IC50 [4] | MIC - P. aeruginosa (1051575): content of compound of formula (I) to restore the doxycycline activity (at 2 μg/mL) [5] | MIC [6] | MIC [7] | MIC [8] | MIC [9] | MIC [10] |
| --- | --- | --- | --- | --- | --- | --- | --- | --- | --- | --- |
| COC(=O)CC[C@@H](C)[C@H]1CCC2C3CCC4C[C@@H](NCCCNCCCN)CC[C@]4(C)C3C[C@H](O)[C@@]21C (stereo partly drawn) [(4), methyl 3β-norspermidinodeoxycholate] | 3 µg/mL (≈ 5.77 µM) | 3 µg/mL (≈ 5.77 µM) | 2 µg/mL (≈ 3.85 µM) | 20 µg/mL (≈ 38.5 µM) | 3 µg/mL | 1 µg/mL (≈ 1.92 µM) | 3 µg/mL (≈ 5.77 µM) | 3 µg/mL (≈ 5.77 µM) | 3 µg/mL (≈ 5.77 µM) | – |
| CC(C)OC(=O)CC[C@@H](C)[C@H]1CCC2C3C(C[C@H](O)[C@@]21C)[C@@]1(C)CC[C@H](NCCCNCCCN)CC1C[C@H]3O (stereo partly drawn) [(7), isopropyl 3β-norspermidinocholate] | 28 µg/mL (≈ 49.7 µM) | 30 µg/mL (≈ 53.2 µM) | 28 µg/mL (≈ 49.7 µM) | 110 µg/mL (≈ 195 µM) | 4 µg/mL | 28 µg/mL (≈ 49.7 µM) | 30 µg/mL (≈ 53.2 µM) | 28 µg/mL (≈ 49.7 µM) | – | > 50 µg/mL |
| COC(=O)CC[C@@H](C)[C@H]1CCC2C3C(CC[C@@]21C)[C@@]1(C)CC[C@H](NCCCNCCCN)CC1C[C@H]3O (stereo partly drawn) [(9), methyl 3β-norspermidinochenodeoxycholate] | 26 µg/mL (≈ 50 µM) | 26 µg/mL (≈ 50 µM) | 13 µg/mL (≈ 25 µM) | 70 µg/mL (≈ 135 µM) | 3 µg/mL | 7 µg/mL (≈ 13.5 µM) | 26 µg/mL (≈ 50 µM) | 26 µg/mL (≈ 50 µM) | 7 µg/mL (≈ 13.5 µM) | 26 µg/mL (≈ 50 µM) |
| COC(=O)CC[C@@H](C)[C@H]1CCC2C3C(CC[C@@]21C)[C@@]1(C)CC[C@H](NCCCNCCCN)CC1C[C@@H]3O (stereo partly drawn) [(13), methyl 3β-norspermidinoursodeoxycholate] | 28 µg/mL (≈ 53.9 µM) | 28 µg/mL (≈ 53.9 µM) | 27 µg/mL (≈ 51.9 µM) | 70 µg/mL (≈ 135 µM) | 7 µg/mL | 7 µg/mL (≈ 13.5 µM) | 55 µg/mL (≈ 106 µM) | 55 µg/mL (≈ 106 µM) | 14 µg/mL (≈ 26.9 µM) | 55 µg/mL (≈ 106 µM) |
| COC(=O)CC[C@@H](C)[C@H]1CCC2C3CCC4C[C@@H](NCCNCCNCCNCCNCCN)CC[C@]4(C)C3C[C@H](O)[C@@]21C (stereo partly drawn) [(20), methyl 3β-(pentaethylenehexamine)deoxycholate] | 16 µg/mL (≈ 25.8 µM) | 8 µg/mL (≈ 12.9 µM) | 4 µg/mL (≈ 6.44 µM) | 90 µg/mL (≈ 145 µM) | 4 µg/mL | 1 µg/mL (≈ 1.61 µM) | 8 µg/mL (≈ 12.9 µM) | 8 µg/mL (≈ 12.9 µM) | 6 µg/mL (≈ 9.66 µM) | 14 µg/mL (≈ 22.5 µM) |
| COC(=O)CC[C@@H](C)[C@H]1CCC2C3C(CC[C@@]21C)[C@@]1(C)CC[C@H](NCCNCCNCCNCCNCCN)CC1C[C@H]3O (stereo partly drawn) [(22), methyl 3β-(pentaethylenehexamine)chenodeoxycholate] | 8 µg/mL (≈ 12.9 µM) | 31 µg/mL (≈ 49.9 µM) | 16 µg/mL (≈ 25.8 µM) | 60 µg/mL (≈ 96.6 µM) | 4 µg/mL | 2 µg/mL (≈ 3.22 µM) | 31 µg/mL (≈ 49.9 µM) | 31 µg/mL (≈ 49.9 µM) | 4 µg/mL (≈ 6.44 µM) | 8 µg/mL (≈ 12.9 µM) |
| CC(C)OC(=O)CC[C@@H](C)[C@H]1CCC2C3C(CC[C@@]21C)[C@@]1(C)CC[C@H](NCCNCCNCCNCCNCCN)CC1C[C@H]3O (stereo partly drawn) [(23), isopropyl 3β-(pentaethylenehexamine)chenodeoxycholate] | 16 µg/mL (≈ 24.7 µM) | 64 µg/mL (≈ 98.6 µM) | 16 µg/mL (≈ 24.7 µM) | – | 8 µg/mL | 8 µg/mL (≈ 12.3 µM) | 64 µg/mL (≈ 98.6 µM) | 16 µg/mL (≈ 24.7 µM) | 16 µg/mL (≈ 24.7 µM) | 32 µg/mL (≈ 49.3 µM) |
| CC(C)OC(=O)CC[C@@H](C)[C@H]1CCC2C3CCC4C[C@@H](NCCCN(C)CCCN)CC[C@]4(C)C3C[C@H](O)[C@@]21C (stereo partly drawn) [(30), isopropyl 3β-(bis(3-aminopropyl)methylamine)deoxycholate] | 56 µg/mL (≈ 99.7 µM) | 56 µg/mL (≈ 99.7 µM) | 28 µg/mL (≈ 49.8 µM) | – | 7 µg/mL | 14 µg/mL (≈ 24.9 µM) | 56 µg/mL (≈ 99.7 µM) | 28 µg/mL (≈ 49.8 µM) | 28 µg/mL (≈ 49.8 µM) | 56 µg/mL (≈ 99.7 µM) |
| CC(C)OC(=O)CC[C@@H](C)[C@H]1CCC2C3C(C[C@H](O)[C@@]21C)[C@@]1(C)CC[C@H](NCCCN(CCCN)CCCN)CC1C[C@H]3O (stereo partly drawn) [(34), isopropyl 3β-(tris(3-aminopropyl)amine)cholate] | 30 µg/mL (≈ 48.3 µM) | 30 µg/mL (≈ 48.3 µM) | 15 µg/mL (≈ 24.2 µM) | – | 4 µg/mL | 7 µg/mL (≈ 11.3 µM) | 30 µg/mL (≈ 48.3 µM) | 30 µg/mL (≈ 48.3 µM) | 15 µg/mL (≈ 24.2 µM) | 30 µg/mL (≈ 48.3 µM) |
| COC(=O)CC[C@@H](C)[C@H]1CCC2C3C(CC[C@@]21C)[C@@]1(C)CC[C@H](NCCCN(CCCN)CCCN)CC1C[C@@H]3O (stereo partly drawn) [(52), methyl 3β-(tris(3-aminopropyl)amine)ursodeoxycholate] | 30 µg/mL (≈ 52 µM) | 14 µg/mL (≈ 24.3 µM) | 14 µg/mL (≈ 24.3 µM) | – | 7 µg/mL | – | 30 µg/mL (≈ 52 µM) | 30 µg/mL (≈ 52 µM) | 14 µg/mL (≈ 24.3 µM) | 30 µg/mL (≈ 52 µM) |
